Test results published in the Kinase Knowledgebase extract (Sharma et al. 2016).
pIC50: −log10 of the molar value.

How the values were obtained:
[1] = biological target: MAPK14 (human) (UniProt Q16539); test: Inhibition of MAPK14 Kinase Activity
[2] = biological target: MAPK14 (human) (UniProt Q16539); test: Assessment of MAPK14 Kinase Activity

MAPK14 (human), sequence (Q16539 whole entry, looked up): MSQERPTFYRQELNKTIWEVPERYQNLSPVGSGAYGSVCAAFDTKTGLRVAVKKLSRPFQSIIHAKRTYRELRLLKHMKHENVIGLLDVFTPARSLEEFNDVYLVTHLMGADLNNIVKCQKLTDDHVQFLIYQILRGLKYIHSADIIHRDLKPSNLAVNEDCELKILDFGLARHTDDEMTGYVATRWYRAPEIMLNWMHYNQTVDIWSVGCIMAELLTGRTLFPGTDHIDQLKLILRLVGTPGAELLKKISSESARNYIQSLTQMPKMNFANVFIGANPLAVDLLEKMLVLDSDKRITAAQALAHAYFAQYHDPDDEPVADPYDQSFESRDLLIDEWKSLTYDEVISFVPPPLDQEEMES

Row | SMILES | pIC50 [1] | pIC50 [2]
1 | Cc1c(F)cc(C(=O)NC2CC2)cc1-c1ccc(C(=O)N[C@H](C)C(C)(C)C)c[n+]1[O-] | > 5.00 | 
2 | Cc1cc(C)cc(CNC(=O)c2ccc(-c3cc(C(=O)NC4CC4)cc(F)c3C)[n+]([O-])c2)c1 | > 5.00 | 
3 | Cc1c(F)cc(C(=O)NC2CC2)cc1-c1ccc(C(=O)NCc2cc(F)ccc2C(F)(F)F)c[n+]1[O-] | > 5.00 | 
4 | Cc1c(F)cc(C(=O)NC2CC2)cc1-c1ccc(C(=O)NC(C)(C)C)c[n+]1[O-] | > 5.00 | > 5.00
5 | Cc1c(F)cc(C(=O)NC2CC2)cc1-c1ccc(C(=O)NCc2cc(C(F)(F)F)ccc2F)c[n+]1[O-] | > 5.00 | > 5.00
6 | Cc1c(F)cc(C(=O)NC2CC2)cc1-c1ccc(C(=O)N[C@@H](C)C(C)C)c[n+]1[O-] | > 5.00 | > 5.00
7 | Cc1c(F)cc(C(=O)NC2CC2)cc1-c1ccc(C(=O)NCC(C)C)c[n+]1[O-] | > 5.00 | 
8 | Cc1c(F)cc(C(=O)NC2CC2)cc1-c1ccc(C(=O)N[C@@H](C)C(C)(C)C)c[n+]1[O-] | > 5.00 | > 5.00
